In ChEMBL document CHEMBL1130700, “Antiinflammatory 4,5-diarylimidazoles as selective cyclooxygenase inhibitors” (1998):

Organism: Mus musculus
Assay: Effective dose was evaluated by mouse air-pouch assay.
Assay type: functional

Work on `CS(=O)(=O)c1ccc(-c2[nH]c(C(F)(F)F)nc2-c2ccccc2)cc1` yielded an ED50 of 0.38 mg/kg.

System: Mus musculus
Assay: In vivo inhibitory activity by mouse air-pouch assay at dose 2 MPK was determined.
Assay type: functional

Compared with `CS(=O)(=O)c1ccc(-c2[nH]c(C(F)(F)F)nc2-c2cccc(Cl)c2)cc1`, `CS(=O)(=O)c1ccc(-c2[nH]c(C(F)(F)F)nc2-c2cccc(F)c2)cc1` is lower in inhibition in vivo at 2 mg/kg: 98% for the first, 92% for the second.

Going from `CS(=O)(=O)c1ccc(-c2[nH]c(C(F)(F)F)nc2NS(=O)(=O)c2ccc(F)cc2)cc1` to `CS(=O)(=O)c1ccc(-c2[nH]c(C(F)(F)F)nc2-c2ccc(F)cc2)cc1`, the inhibition in vivo at 2 mg/kg rises from 33% to 99%.

Going from `CS(=O)(=O)c1ccc(-c2[nH]c(C(F)(F)F)nc2-c2ccsc2)cc1` to `CS(=O)(=O)c1ccc(-c2[nH]c(C(F)(F)F)nc2-c2cccs2)cc1`, the inhibition in vivo at 2 mg/kg rises from 0% to 79%.

Compared with `CS(=O)(=O)c1ccc(-c2[nH]c(C(F)(F)F)nc2-c2ccc(F)cc2F)cc1`, `CS(=O)(=O)c1ccc(-c2[nH]c(C(F)(F)F)nc2-c2ccc(F)c(F)c2)cc1` is lower in inhibition in vivo at 2 mg/kg: 100% for the first, 68% for the second.

First: Cc1cccc(-c2[nH]c(C(F)(F)F)nc2-c2ccc(S(C)(=O)=O)cc2)c1
Second: Cc1ccc(-c2[nH]c(C(F)(F)F)nc2-c2ccc(S(C)(=O)=O)cc2)cc1Cl
The inhibition in vivo at 2 mg/kg of the first is higher: 29% for the first, 0% for the second.

`CS(=O)(=O)c1ccc(-c2[nH]c(C(F)(F)F)nc2-c2ccccc2Cl)cc1` and `CS(=O)(=O)c1ccc(-c2[nH]c(C(F)(F)F)nc2-c2ccc(Cl)cc2)cc1` are the same in inhibition in vivo at 2 mg/kg: 86% for the first, 86% for the second.

First: CS(=O)(=O)c1ccc(-c2[nH]c(C(F)(F)F)nc2-c2cccnc2)cc1
Second: CS(=O)(=O)c1ccc(-c2[nH]c(C(F)(F)F)nc2-c2ccc(Cl)c(Cl)c2)cc1
The inhibition in vivo at 2 mg/kg of the first is lower: 29% for the first, 84% for the second.

In the case of `Cc1c(F)cccc1-c1[nH]c(C(F)(F)F)nc1-c1ccc(S(C)(=O)=O)cc1`, the inhibition in vivo at 2 mg/kg is reported as 94%.

Work on `Cc1ccc(-c2cc(C(F)(F)F)nn2-c2ccc(S(N)(=O)=O)cc2)cc1` [CELECOXIB] yielded an ED50 of 0.33 mg/kg.

Organism: Rattus norvegicus
Assay: Effective dose was evaluated by rat adjuvant arthritis model.
Assay type: functional

Going from `CS(=O)(=O)c1ccc(-c2[nH]c(C(F)(F)F)nc2-c2ccccc2)cc1` to `Cc1ccc(-c2cc(C(F)(F)F)nn2-c2ccc(S(N)(=O)=O)cc2)cc1` [CELECOXIB], the ED50 rises from 0.16 mg/kg to 0.37 mg/kg (2.3-fold).

System: Mus musculus
Assay: In vivo inhibitory activity by mouse air-pouch assay at dose 2 mg/Kg was determined.
Assay type: functional

In the case of `CS(=O)(=O)c1ccc(-c2[nH]c(C(F)(F)F)nc2-c2ccccc2)cc1`, the inhibition in vivo at 2 mg/kg is reported as 95%.
